This assay deals with TBK1. The experiment in a line: Immunoblot of TBK1 phosphorylation in HCT116 cells (p53 wild-type or p53-/-). It counts as cell-based. As to the method:
Cell Culture. The MCF-7 human breast carcinoma cell line and HCT116 p53 wild-type and HCT116 p53−/− cell lines were obtained from ATCC. […]
Immunoblotting. […] One hour after IR, cells were lysed in RIPA buffer ([…], pH 8.0, 150 mM NaCl, 0.1% SDS, 0.5% sodium deoxycholate, 1% IGEPAL® CA-630 (Sigma, 18896) for 20 min at 4° C. in the presence of protease and phosphatase inhibitor cocktails (Roche, #04693159001 & #04906837001). Cell lysates were centrifuged at 13,200 g for 10 min at 4° C. and supernatants were analyzed for protein content using BCA assay (Pierce™ BCA Protein Assay Kit, cat #23227, ThermoFisher Waltham, Mass. 02451) and equal amounts of protein/lane were used for subsequent immunoblot analyses. Proteins were denatured by adding NuPAGE LSD Sample Buffer [4×] […]
Background: In western blotting, separated proteins are transferred to a membrane and probed.

Regarding `CC(C)NCCOc1ncc(-c2cc3c4c(cnc3cc2F)N(C)C(=O)C42CCC2)cc1NS(C)(=O)=O` [Compound 569, N-(5-(7′-Fluoro-3′-methyl-2′-oxo-2′,3′-dihydrospiro[cyclobutane-1,1′-pyrrolo[2,3-c]quinolin]-8′-yl)-2-(2-(isopropylamino)ethoxy)pyridin-3-yl)methanesulfonamide], the “induction of phosphorylation (activation) of TBK1” value (HCT116 p53 wild-type or p53-/- cells, 569 1 μM, ATMi + DNA-PKi 0.5 or 1 micromolar each, 0 or 10 Gy) is on record as “more potent activator of TBK1 phosphorylation than either of the single target kinase inhibitors”. In addition, the “dependence of TBK1 activation on p53 status” value (HCT116 p53 wild-type vs p53-negative cells, 1 μM) is “independent of p53 status”.
